According to ChEMBL document CHEMBL1201862, “PubChem BioAssay data set” (2004):
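Where inhibition never reached the appropriate level, the endpoint shown equals the highest concentration tested. Otherwise, values were interpolated linearly from a five-concentration, 48-hour dose response in 96-well plates. GI50 marks 50% less growth.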 Activity calls are given as the source filed them. Rule as the data show it: active = GI50 up to about 1.1 µM and inactive = higher.

Key:
Test in all cases: growth of human tumour cells (NCI), 48 h
HCT-116 = tested on: HCT-116
MCF7 = tested on: MCF7
786-0 = tested on: 786-0
A549 = tested on: A549
SNB-75 = tested on: SNB-75
TK-10 = tested on: TK-10
OVCAR-8 = tested on: OVCAR-8
RXF 393 = tested on: RXF 393
SF-539 = tested on: SF-539
EKVX = tested on: EKVX
NCI-H226 = tested on: NCI-H226
SW-620 = tested on: SW-620
NCI-H522 = tested on: NCI-H522
HT-29 = tested on: HT-29
SK-MEL-28 = tested on: SK-MEL-28
UACC-257 = tested on: UACC-257
MDA-MB-435 = tested on: MDA-MB-435
SK-OV-3 = tested on: SK-OV-3

Row | Structure (SMILES) | GI50 (HCT-116) | GI50 (MCF7) | GI50 (786-0) | GI50 (A549) | GI50 (SNB-75) | GI50 (TK-10) | GI50 (OVCAR-8) | GI50 (RXF 393) | GI50 (SF-539) | GI50 (EKVX) | GI50 (NCI-H226) | GI50 (SW-620) | GI50 (NCI-H522) | GI50 (HT-29) | GI50 (SK-MEL-28) | GI50 (UACC-257) | GI50 (MDA-MB-435) | GI50 (SK-OV-3)
1 | CN(C)CCNc1ccc2c(=O)n(CCN(C)C)c(=O)n3c4ccc(O)cc4c(=O)c1c23 | < 0.01 µM (active) | < 0.01 µM (active) | < 0.01 µM (active) | < 0.01 µM (active) | 0.029 µM (active) | 0.197 µM (active) | < 0.01 µM (active) | < 0.0127 µM (active) | < 0.01 µM (active) | 0.183 µM (active) | < 0.01 µM (active) | < 0.01 µM (active) | < 0.01 µM (active) | < 0.01 µM (active) | 0.202 µM (active) | 0.149 µM (active) | 0.0711 µM (active) | < 0.022 µM (active)
2 | CCN(CC)CCCn1c(=O)c2ccccc2n2c3c(=O)n(C)c(=O)n(C)c3nc12 | 4.65 µM (inactive) | 4.76 µM (inactive) | 2.21 µM (inactive) | 0.959 µM (active) | 5.92 µM (inactive) | 15.8 µM (inactive) | 5.08 µM (inactive) | 16 µM (inactive) | 7.73 µM (inactive) | 15 µM (inactive) | 2.7 µM (inactive) | 3.42 µM (inactive) | 5.74 µM (inactive) | 6.56 µM (inactive) | 15.7 µM (inactive) | 10.9 µM (inactive) | 14.2 µM (inactive) | 3.37 µM (inactive)
3 | Cc1cccc2nc3cccc(C(=O)NCCC[N+](C)(CCCNC(=O)c4cccc5nc6cccc(C)c6nc45)Cc4c([N+](=O)[O-])ncn4C)c3nc12 | 1.4 µM (inactive) | 0.436 µM (active) | 4.07 µM (inactive) | 0.189 µM (active) | 233 µM (inactive) | 43.9 µM (inactive) | 0.0859 µM (active) | 4.01 µM (inactive) | 0.41 µM (active) | 1.79 µM (inactive) | 0.787 µM (active) | 0.143 µM (active) | 2.1 µM (inactive) | 0.187 µM (active) | 1.07 µM (active) | 5.22 µM (inactive) | 5.13 µM (inactive) | 44.8 µM (inactive)
4 | COc1cc(OCc2ccc3nc(OC)c(OC)nc3c2)cc(OC)c1OC | > 10 µM (inactive) | > 10 µM (inactive) | > 10 µM (inactive) | > 10 µM (inactive) | > 10 µM (inactive) | > 10 µM (inactive) | > 10 µM (inactive) | > 10 µM (inactive) | > 10 µM (inactive) | > 10 µM (inactive) | > 10 µM (inactive) | > 10 µM (inactive) | > 10 µM (inactive) | > 10 µM (inactive) | > 10 µM (inactive) | > 10 µM (inactive) | > 10 µM (inactive) | > 10 µM (inactive)
5 | CC(CCCC1SCC2NC(=O)NC21)C(=O)O (configuration not stated) | > 100 µM (inactive) | > 100 µM (inactive) | > 100 µM (inactive) | > 100 µM (inactive) | > 100 µM (inactive) | > 100 µM (inactive) | > 100 µM (inactive) | > 100 µM (inactive) | > 100 µM (inactive) | > 100 µM (inactive) | > 100 µM (inactive) | > 100 µM (inactive) | > 100 µM (inactive) | > 100 µM (inactive) | > 100 µM (inactive) |  | > 100 µM (inactive) | > 100 µM (inactive)
6 | CCOC(=O)/C=C(/C(=O)OCC)n1ccc(=O)n(Cc2cn(CCCCOC(C)=O)nn2)c1=O | > 100 µM (inactive) | 60.3 µM (inactive) | > 100 µM (inactive) | > 100 µM (inactive) | > 100 µM (inactive) | 58.2 µM (inactive) | > 100 µM (inactive) | > 100 µM (inactive) | > 100 µM (inactive) | > 100 µM (inactive) | 32.9 µM (inactive) | 32.7 µM (inactive) | 13.6 µM (inactive) | > 100 µM (inactive) | > 100 µM (inactive) | > 100 µM (inactive) | > 100 µM (inactive) | > 100 µM (inactive)
7 | CO/C=C(/C(=O)OC)c1ccccc1COc1cccc(C(F)(F)F)c1 | 2.4 µM (inactive) | 5.35 µM (inactive) | 8.09 µM (inactive) | 2.91 µM (inactive) | 7.01 µM (inactive) | 3.18 µM (inactive) | 8.69 µM (inactive) | 11.6 µM (inactive) | 4.97 µM (inactive) | 3.56 µM (inactive) | 1.89 µM (inactive) |  | 0.526 µM (active) | 4.14 µM (inactive) | 22.6 µM (inactive) | 0.676 µM (active) | 1.01 µM (active) | 27.9 µM (inactive)
8 | Cc1ccc2ccc(O)cc2c1 | 68.9 µM (inactive) | 31.2 µM (inactive) | 76.2 µM (inactive) | 72.4 µM (inactive) | 48.9 µM (inactive) | > 100 µM (inactive) | 23.3 µM (inactive) | 44.9 µM (inactive) | 38.4 µM (inactive) | 43.4 µM (inactive) | 39.3 µM (inactive) | 37 µM (inactive) | 19.9 µM (inactive) | 53.6 µM (inactive) | > 100 µM (inactive) | 64.3 µM (inactive) | 19 µM (inactive) | 26.9 µM (inactive)
